*1 amine or outer side, *2 acyl side, *3 side chain or, on linkers, in order; H or OH if unused. Where a SMILES comes first, the peptide text is derived from it. Bridges are numbered along the chain shown (N, C = ends). [ ]: non-standard residue; d: D form. The star is where a group is joined. ξ: configuration not given here. X1 = CC(C)=CCCC(C)C1CCC2(C)C3=C(CCC12C)C1(C)CCC(OC(=O)*)C(C)(C)C1CC3; ξOrn(4,5-diOH) = O=C(C(CC(O)C(O)N[*:3])N[*:1])[*:2]; ξhTyr(βOH) = NC(C(=O)O)C(O)Cc1ccc(O)cc1; ξPro(3ξ-OH,4ξ-Me) = CC1CNC(C(=O)O)C1O; Hyp = O=C(O)[CH]1C[CH](O)CN1
Molecular target: T1, Glucan Synthase of Candida Albicans (Candida albicans, UniProt O13428)
T1 construct: 22.5 μg of membrane proteins are incubated in a mixture of 2 mM of; endogenous in cells
T1 sequence (O13428 1-1897): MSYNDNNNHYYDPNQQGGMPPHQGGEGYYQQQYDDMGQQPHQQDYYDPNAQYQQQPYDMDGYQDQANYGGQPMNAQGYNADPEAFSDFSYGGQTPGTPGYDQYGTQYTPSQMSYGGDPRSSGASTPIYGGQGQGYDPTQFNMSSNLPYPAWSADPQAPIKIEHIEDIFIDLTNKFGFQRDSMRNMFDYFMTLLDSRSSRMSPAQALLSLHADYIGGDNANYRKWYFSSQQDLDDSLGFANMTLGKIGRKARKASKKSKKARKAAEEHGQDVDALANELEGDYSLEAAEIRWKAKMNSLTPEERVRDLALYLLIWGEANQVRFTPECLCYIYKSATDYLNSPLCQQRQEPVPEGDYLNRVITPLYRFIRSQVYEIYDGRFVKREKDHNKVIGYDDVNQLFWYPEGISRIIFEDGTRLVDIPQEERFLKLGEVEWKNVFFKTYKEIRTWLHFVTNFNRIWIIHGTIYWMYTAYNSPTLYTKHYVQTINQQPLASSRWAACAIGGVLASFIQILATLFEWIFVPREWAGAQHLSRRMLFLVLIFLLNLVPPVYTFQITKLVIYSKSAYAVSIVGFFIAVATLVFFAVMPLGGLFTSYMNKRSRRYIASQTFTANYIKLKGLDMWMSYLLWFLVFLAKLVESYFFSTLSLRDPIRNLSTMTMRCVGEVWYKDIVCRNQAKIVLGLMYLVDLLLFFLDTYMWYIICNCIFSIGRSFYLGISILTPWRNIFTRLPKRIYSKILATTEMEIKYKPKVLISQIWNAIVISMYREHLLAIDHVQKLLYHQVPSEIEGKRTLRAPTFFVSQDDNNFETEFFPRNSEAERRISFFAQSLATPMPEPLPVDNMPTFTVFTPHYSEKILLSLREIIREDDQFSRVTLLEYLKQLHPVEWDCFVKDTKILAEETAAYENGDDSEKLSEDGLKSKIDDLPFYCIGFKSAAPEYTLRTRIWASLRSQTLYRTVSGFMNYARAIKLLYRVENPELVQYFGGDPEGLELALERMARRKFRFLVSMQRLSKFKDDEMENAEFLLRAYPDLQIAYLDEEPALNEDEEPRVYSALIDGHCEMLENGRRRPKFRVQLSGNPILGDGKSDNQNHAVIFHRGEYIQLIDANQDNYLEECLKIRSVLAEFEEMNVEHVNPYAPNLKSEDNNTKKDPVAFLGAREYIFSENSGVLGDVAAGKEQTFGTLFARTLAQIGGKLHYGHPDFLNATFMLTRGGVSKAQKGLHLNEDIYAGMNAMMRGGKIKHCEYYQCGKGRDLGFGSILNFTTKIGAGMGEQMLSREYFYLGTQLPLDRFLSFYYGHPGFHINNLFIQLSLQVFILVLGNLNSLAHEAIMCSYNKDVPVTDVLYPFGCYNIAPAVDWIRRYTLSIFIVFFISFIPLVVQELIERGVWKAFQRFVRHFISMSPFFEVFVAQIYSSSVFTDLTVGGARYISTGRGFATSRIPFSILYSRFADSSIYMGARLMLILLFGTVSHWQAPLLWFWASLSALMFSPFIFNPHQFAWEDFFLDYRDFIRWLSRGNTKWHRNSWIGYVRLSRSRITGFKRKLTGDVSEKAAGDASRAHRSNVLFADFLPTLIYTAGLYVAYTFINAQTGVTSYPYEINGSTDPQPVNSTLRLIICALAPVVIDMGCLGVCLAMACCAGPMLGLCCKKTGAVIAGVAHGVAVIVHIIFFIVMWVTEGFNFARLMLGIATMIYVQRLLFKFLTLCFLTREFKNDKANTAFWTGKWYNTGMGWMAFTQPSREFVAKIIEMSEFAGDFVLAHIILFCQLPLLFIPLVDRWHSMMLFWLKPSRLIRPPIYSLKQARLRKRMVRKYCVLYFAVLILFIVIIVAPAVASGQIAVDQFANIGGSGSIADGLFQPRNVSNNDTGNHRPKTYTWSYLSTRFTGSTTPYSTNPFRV
T1 sequence (O42825 1-195 partner limits assumed): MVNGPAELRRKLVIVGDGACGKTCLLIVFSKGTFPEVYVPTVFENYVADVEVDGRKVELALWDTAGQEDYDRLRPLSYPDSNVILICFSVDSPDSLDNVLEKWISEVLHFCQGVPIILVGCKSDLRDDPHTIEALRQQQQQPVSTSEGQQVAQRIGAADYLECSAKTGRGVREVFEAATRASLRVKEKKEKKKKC
Assay: Inhibition of the glucan synthase of Candida albicans (14C-UDP glucose incorporation, membrane preparation)
Assay type: biochemical
Settings: Candida albicans membranes, 25° C., 1 hour; result in words
Description: A—Inhibition of the Glucan Synthase of Candida Albicans.
Candida albicans membranes are purified according to the process described by Tang et al Antimicrob. Agents Chemother 35, 99-103, 1991. 22.5 μg of membrane proteins are incubated in a mixture of 2 mM of ^14C-UDP glucose (specific activity=0.34 mCi./mmol, 50 μg of a α-amylase, 1 mM of dithiotreitol (DTT), 1 mM EDTA, 100 mM NaF, 7 μM of GTP-γ-S, 1M of sucrose and 50 mM of Tris-HCL (pH 7.8) in a volume of 100 μl. The medium is incubated at 25° C. for 1 hour and the reaction is terminated by adding TCA at a final concentration of 5%. The reaction mixture is transferred onto a pre-moistened glass fibre filter. The filter is washed, dried and its radioactivity is counted. Mulundocandin is used as a positive control. Control of the vehicle is carried out with the same quantity of 1% DMSO.

Molecule	Inhibition of the Glucan Synthase of Candida Albicans
1-[(4R,5R)-4,5-dihydroxy-N2-[[[(3β, 22E)-ergosta-5,7,22-trien-3-yl]oxy]carbonyl]-L-ornithine]-mulundocandin [Example 3]	good activity
CC(C)=CCCC(C)C1CCC2(C)C3=C(CCC12C)C1(C)CCC(OC(=O)NC2CC(O)C(O)NC(=O)C(CO)NC(=O)C4C(O)C(C)CN4C(=O)C(C(O)Cc4ccc(O)cc4)NC(=O)C4CC(O)CN4C(=O)C(C(C)O)NC2=O)C(C)(C)C1CC3 [Example 2, 1-[(4R,5R)-4,5-dihydroxy-N2-[[[(3β)-lanosta-8,24-dien-3-yl]oxy]carbonyl]-L-ornithine]-deoxymulundocandin] (X1-[ξOrn(4,5-diOH)]T[Hyp][ξhTyr(βOH)][ξPro(3ξ-OH,4ξ-Me)]S; lactam 1-C; configuration not given here)	good activity
